Reference: patent US9855255B1, “Substituted naphthyridinyl hydrazines as anti-liver cancer agents” (KING SAUD UNIVERSITY, priority 2017, dated 2018)
In brackets after ≈: the same amount, converted by molar mass.

Experiments:
[1] = Effect on biochemical parameters in mice serum; type: in vivo; details: single i.p. 12 mg/kg, blood after 7 days; for Albumin / Bilirubin / Cholestrol / Creatinine / Globulin / Total Lipids / Triglycerides / Alanine amino transferase ALT / Alkaline phosphatase ALP / Aspartate amino transferase AST: Mean + S.D.; for Alanine amino transferase ALT / Alkaline phosphatase ALP / Aspartate amino transferase AST: 12 mg/kg
Excerpt: Male albino mice, weighing 18-20 g each, were used in a study. The mice were divided into three main groups, as follows. Group 1 is the untreated control group (5 mice); Group 2 is divided into two subgroups (5 mice in each subgroup), treated with either 5-FU (5-Fluorouracil) or DOX (Doxorubicin) as reference anticancer drugs. Group 3 is divided into ten subgroups (5 mice for each subgroup) and treated with the present substituted naphthyridinyl hydrazine compounds. The mice were housed in wide cages and well aerated rooms, and fed standard diets and clean water. Blood collection from the animals was done with heparinized cannula, and the mice were left alive.
For treatment, in Group 1, each mouse was given a single intraperitoneal (i.p.) injection of 0.1 mL DMSO; in Group 2, each mouse was given a single i.p. injection of 0.1 mL containing 12 mg/kg body weight of 5-FU or DOX dissolved in sterile water; and in Group 3, each mouse was given a single intraperitoneal injection of 0.1 mL containing 12 mg/kg body weight of the selected furan derivatives dissolved in 0.01% DMSO. Blood was collected after 7 days from all mouse groups.
The biochemical effects of formula 1 compounds on some liver enzymes in mouse blood serum was studied. Effects on aspartate and alanine aminotransferases (AST and ALT), and alkaline phosphatase (ALP), were examined using a blood auto analyzer, Olympus AV 400, Japan. Moreover, albumin, globulins, creatinine, total lipids, cholesterol, triglycerides, and bilirubin were evaluated, in comparison to treatment using 5-FU or DOX. Statistical analysis of the results was performed using Chi-square values (SPSS computer program).

HepG2 (Liver) = assay: MTT cell proliferation and viability assay on liver HEPG2 cancer cell line; type: cell-based; details: Homo sapiens, 48 hours, read-out: IC50 cytotoxic activity
Method: In the following examples, human cancer cell line HepG2 (Liver) was grown in DMEM media supplemented with 10% bovine serum, 1× penicillin-streptomycin (Sigma-Aldrich) at 37° C. in a humidified chamber with 5% CO2. 5-Flurourasil (Sigma-Aldrich) was used as the reference drug (standard).
Cells were seeded (1×10^5 cells/well in triplicate) in a 96-well flat-bottom plate (Becton-Dickinson Lab ware) a day before treatment and grown. Stocks of all extracts/compounds (1.0 mg/ml) were made with 5% DMSO (Sigma-Aldrich), and further working solutions (100 μg/ml) were prepared in serum-free culture media. Cells were treated with four different doses (2, 6.2, 12.5, and 25 μg/ml; in triplicate) of the compounds in complete growth media, including reference drug, and further incubated for 48 hours.
On day 2 of treatment, cell proliferation and viability test was performed using TACS MTT Cell Proliferation and Viability Assay Kit (TACS), as per manufacturer's instructions. The relationship between surviving fraction and compound concentration was plotted to obtain the survival curve of cancer cell lines. The response parameter calculated was the IC50 value, which corresponds to the concentration required for 50% inhibition of cell viability.

HeLa cells = assay: Phase contrast microscopy of morphological changes in HeLa cells; type: cell-based; details: after 12 and 24 hrs
Method: B. Similar studies were done with HeLa cells. Cells were seeded in 6-well plates and allowed to adhere at 37° C. in CO2 incubator. After 24 h, each well was treated with 4.6 μM 2,6P-OLA and incubated for the indicated time. After 12 and 24 h, the cells were imaged by phase contrast microscope (Olympus CLX 41) to visualize morphological changes in HeLa cells.
B. Change in LeLa cells after treatment with compound 6 was also studied for morphological variations using the phase contrast microscopy.

HepG2 cells = assay: Phase contrast microscopy of morphological changes in HepG2 cells; type: cell-based, human; details: for Morphological changes of HepG2 cells: 10 μg
Method: (§1) The cells were seeded in 6-well plates and allowed to adhere at 37° C. in a CO2 incubator. After 24 h, each well was treated with 10 μg compound and incubated for the indicated time. After 24 and 48 hrs, the cells were imaged by phase contrast microscope (Olympus CLX 41) to visualize morphological changes in HepG2 cells.
as §1, with “A. The” for “The”, “in” for “in a”, “μg of” for “μg”, “compound 6” for “compound”
A. Change in HepG2 cells after treatment with compound 6 was studied for morphological variations using the phase contrast microscopy.
Many characteristic features occur in cells undergoing a series of biochemical events during apoptosis. Various morphological changes, such as blebbing, loss of membrane asymmetry, cell shrinkage, nuclear fragmentation, chromatin condensation, and chromosomal DNA fragmentation occur.

[2] = tested on: various human cancer cell lines; assay: Single-dose screening against a variety of human cancer cell lines; type: cell-based; details: leukemia, non-small cell lung, colon, CNS, melanoma, ovarian, renal, prostate, breast cancer cell lines
Excerpt: FIGS. 5A and 5B are a chart showing results of single-dose screening for various human cancer cell lines treated with compound 6 (a substituted naphthyridinyl hydrazine according to the present invention).

Row | SMILES | A/G ratio [1] | Albumin [1] [mg/d1] | Bilirubin [1] [mg/dL] | Cholestrol [1] [mg/dL] | Creatinine [1] [mg/dL] | Globulin [1] [mg/dL] | Total Lipids [1] [mg/dL] | Triglycerides [1] [mg/dL] | melting point [°C] | IC50 (HepG2 (Liver)) [µg/mL] | Alanine amino transferase ALT [1] [IU/ml] | Alkaline phosphatase ALP [1] [k.k./dl] | Aspartate amino transferase AST [1] [IU/ml] | further results
1 | O=c1[nH]cc(F)c(=O)[nH]1 [Compound 5-FU, 5-Fluorouracil] | 1.13 | 6.49 ± 0.92 | 0.75 ± 0.10 | 105.9 ± 11.7 | 0.81 ± 0.06 | 5.75 ± 0.8 | 378.2 ± 31.4 | 126.5 ± 19.4 | – | 5 (≈ 38.4 µM) | – | – | – | –
2 | Cc1ccc2c(N/N=C/c3ccccc3[N+](=O)[O-])cc(C)nc2n1 [Compound 6, (E)-2-(2-Nitrobenzylidene)-1-(2,7-dimethyl-1,8-naphthyridin-5-yl)hydrazine] | 1.23 | 7.73 ± 0.52 | 0.76 ± 0.15 | 93.24 ± 19.53 | 0.71 ± 0.21 | 6.25 ± 0.82 | 326.32 ± 19.3 | 110.54 ± 17.8 | 255 to 256 | 0.885 (≈ 2.75 µM) | 46.09 ± 6.13 | 21.59 ± 3.42 | 112.81 ± 9.88 | Morphological variations of HeLa cells (HeLa cells): Changes in surface morphology were observed; Morphological changes of HepG2 cells (HepG2 cells; 24 hours, FIG. 7B): onset of apoptotic characteristics; Morphological changes of HepG2 cells (HepG2 cells; 48 hours, FIG. 7C): blebbing and loss of basal attachment and membrane asymmetry is markedly seen; Morphological variations of HepG2 cells (HepG2 cells; after 24 and 48 hrs, phase contrast microscopy): Changes in surface morphology; Cancer cell growth in single-dose screening [2]: significant decreases in cancer cell growth; Alanine amino transferase ALT ([1]; listed as new compound): non-significant (n.s.) or slightly higher; Alkaline phosphatase ALP ([1]; listed as new compound): no significant changes; Aspartate amino transferase AST ([1]; listed as new compound): non-significant (n.s.) or slightly higher
3 | COc1cccc2c1C(=O)c1c(O)c3c(c(O)c1C2=O)C[C@@](O)(C(=O)CO)C[C@@H]3O[C@H]1C[C@H](N)[C@H](O)[C@H](C)O1 [Doxorubicin] | 1.078 | 6.37 ± 0.85 | 0.81 ± 0.19 | 109.3 ± 14.2 | 0.78 ± 0.04 | 5.91 ± 0.63 | 21.94 ± 3.4 | 137.8 ± 17.10 | – | 3.56 (≈ 6.55 µM) | 59.26 ± 12.03 | 30.31 ± 5.14 | 147.22 | Alanine amino transferase ALT ([1]; listed as DOX): significantly higher; Alkaline phosphatase ALP ([1]; listed as DOX): significantly increased; Aspartate amino transferase AST ([1]; listed as DOX): significantly higher

Now from value to compound, other results behind:

Row | A/G ratio [1] | Albumin [1] [mg/d1] | Bilirubin [1] [mg/dL] | Cholestrol [1] [mg/dL] | Creatinine [1] [mg/dL] | Globulin [1] [mg/dL] | Total Lipids [1] [mg/dL] | Triglycerides [1] [mg/dL] | melting point [°C] | SMILES | IC50 (HepG2 (Liver)) [µg/mL] | Alanine amino transferase ALT [1] [IU/ml] | Alkaline phosphatase ALP [1] [k.k./dl] | Aspartate amino transferase AST [1] [IU/ml] | further results
4 | – | – | – | – | – | – | – | – | > 300 | Cc1ccc2c(N/N=C3\C(=O)Nc4ccccc43)cc(C)nc2n1 [Compound 8b, (3Z)-3-[2-(2,7-Dimethyl-1,8-naphthyridin-4-yl)hydrazinylidene]-1,3-dihydro-2H-indol-2-one] | – | – | – | – | –
5 | – | – | – | – | – | – | – | – | > 300 | Cc1ccc2c(N/N=C3\C(=O)Nc4ccc(Cl)cc43)cc(C)nc2n1 [Compound 8c, (3Z)-5-Chloro-3-[2-(2,7-dimethyl-1,8-naphthyridin-4-yl)hydrazinylidene]-1,3-dihydro-2H-indol-2-one] | – | – | – | – | –
